One molecule from PMC7901650, “Garcinoic Acid Is a Natural and Selective Agonist of Pregnane X Receptor” (Journal of Medicinal Chemistry, 2020) can be followed below.

The subject of one data set is HepaRG cells. Nature of the data set: PXR protein expression in HepaRG cells. Conditions: 24 h, 1 to 25 μM, compared with HepG2. Type of data set: cell-based. How it is done: (§1) HepG2 (human hepatoma cell line; ATCC HB-8065, Manassas, VA) and HepaRG (HPRGC10, Thermo Fisher Scientific) cells were maintained in culture as previously described.[47] Experiments were performed between passages 2 and 10. Cell viability, clonogenic activity, and apoptotic cell death were assessed as previously described (see Figure S2).[58],[59] HT29 human colorectal adenocarcinoma cells (ATCC HTB-38) and its mucous-secreting HT29-MTX subclone (Sigma-Aldrich) were used as intestinal cell models. HT29 cells were cultured in RPMI (Invitrogen; Life Technologies) containing 10% FBS (v/v) and 1% (v/v) L-glutamine. HT29-MTX cells (from Sigma-Aldrich) were cultured in DMEM supplemented with 2 mM glutamine, 1% nonessential amino acids, and 10% FBS. […]
(§2) Cells were harvested and lysed in ice-cold cell lysis buffer (Cell Signaling Technology) and 20 μL/mL protease inhibitor cocktail (Roche). […] After incubation in ice for 1 h and centrifugation (12 000 rpm for 20 min at 4 °C), the supernatant was recovered, and total proteins were quantified by the BCA assay kit (Pierce, Thermo Fisher Scientific). […] The band intensity was analyzed using Gel Pro analyzer Software. […]
PXR protein was assessed by immunoblot (10 µg total protein loading) in HepaRG cells treated for 24 hrs with GA at concentrations between 1 and 25 μM (A). […]

A further data set deals with HT29-MTX. Nature of the data set: PXR and CYP3A4 protein expression in HT29-MTX cells. The format is cell-based. Conditions: 24 h, 1 to 25 μM. As for the experimental part:
as §1, §2
PXR and CYP3A4 protein was assessed by immunoblot (20 µg total protein loading) in HT29 cells (from ATCC) were cultured in RPMI (Invitrogen; Life Technologies) containing 10% FBS ( v/v) and 1% ( v/v) L-glutamine. […]

With `C/C(=C\CC/C(C)=C/CC[C@]1(C)CCc2cc(O)cc(C)c2O1)CC/C=C(\C)C(=O)O` [GA (1), (2E,6E,10E)-13-[(2R)-6-hydroxy-2,8-dimethyl-chroman-2-yl]-2,6,10-trimethyltrideca-2,6,10-trienoic acid], in the data set with HepaRG cells, the PXR protein response result is on record as “Even higher”. For the same molecule, in the data set with HT29-MTX, the “PXR and CYP3A4 protein expression” value was “increase”.
